Experimental data from patent US20130225575A1, “METHODS FOR TREATING NEUROLOGICAL CONDITIONS” (AFRAXIS, INC., priority 2010, published 2013).

Tests used:
Type in all cases: biochemical
PAK2 = PAK2 (Homo sapiens, UniProt Q13177); assay: Z'Lyte fluorescence-based (FRET) kinase assay, PAK2; details: ATP at Km apparent; 1 hr room temperature
Protocol: (§1) A fluorescence-based assay format is used to determine […] values of test compounds in vitro. Purified PAK kinase is incubated with ATP, and a test compound at various concentrations and a substrate peptide containing two fluorophores. In a second step, the reaction mix is incubated with a site-specific protease that cleaves non-phosphorylated but not phosphorylated substrate peptide, disrupting the FRET signal generated by the two fluorophores in the cleaved peptide (Z'Lyte™ Kinase assay platform; Life Technologies).
(§2) Reagents: 50 mM HEPES, pH 7.5; 0.01% BRIJ-35; 10 mM MgCl2; 1 mM EGTA, 2 uM substrate peptide Ser/Thr20 (proprietary Life Technologies Sequence), PAK enzyme [2.42-30.8 ng for PAK1, 0.29-6 ng for PAK2, 1.5-20 ng for PAK3 and 0.1-0.86 ng for PAK4; actual enzyme amounts depend on lot activity of the enzyme preparation]
(§3) Test compounds are dissolved in DMSO at various concentrations; the final DMSO concentration in the assay reaction is 1%.
(§4) ATP concentration at Km apparent is used in the assay [50 ? M ATP for PAK1 assay, 75 ? M ATP for PAK2 assay, 100 μM ATP for PAK3 assay, 5 μM ATP for PAK4 assay] in a total assay volume of 10 μl. […]
(§5) Plates are analyzed in a standard fluorescence plate reader (Tecan or equivalent) using an excitation wavelength of 400 nm and emission wavelengths of 445 nm and 520 nm. Inhibition of kinase reaction is determined by […]

PAK1 = biological target: T1, PAK1 (Homo sapiens, UniProt Q13153); assay: Z'Lyte fluorescence-based (FRET) kinase assay, PAK1; details: ATP at Km apparent; 1 hr room temperature
T1 construct: Purified PAK kinase is incubated with ATP
T1 sequence (Q13153 whole entry): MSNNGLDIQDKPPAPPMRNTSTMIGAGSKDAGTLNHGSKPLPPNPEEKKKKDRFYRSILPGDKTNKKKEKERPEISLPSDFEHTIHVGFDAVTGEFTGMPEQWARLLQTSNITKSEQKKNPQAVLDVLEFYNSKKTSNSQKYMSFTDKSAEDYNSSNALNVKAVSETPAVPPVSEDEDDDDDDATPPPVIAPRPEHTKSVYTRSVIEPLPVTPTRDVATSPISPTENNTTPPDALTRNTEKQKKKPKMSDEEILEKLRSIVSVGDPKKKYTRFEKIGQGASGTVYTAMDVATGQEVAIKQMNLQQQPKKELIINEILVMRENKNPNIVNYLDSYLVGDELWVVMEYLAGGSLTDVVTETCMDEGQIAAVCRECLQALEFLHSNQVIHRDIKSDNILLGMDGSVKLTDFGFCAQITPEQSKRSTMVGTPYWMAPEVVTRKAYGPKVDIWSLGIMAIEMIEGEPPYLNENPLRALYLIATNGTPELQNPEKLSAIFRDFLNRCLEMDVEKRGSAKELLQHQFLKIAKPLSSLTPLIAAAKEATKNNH
Protocol: as §1, §2, §3, §4, §5

PAK3 = PAK3 (Homo sapiens, UniProt O75914); assay: Z'Lyte fluorescence-based (FRET) kinase assay, PAK3; details: ATP at Km apparent (100 μM ATP); 1 hr room temperature
PAK3, sequence (O75914 whole entry): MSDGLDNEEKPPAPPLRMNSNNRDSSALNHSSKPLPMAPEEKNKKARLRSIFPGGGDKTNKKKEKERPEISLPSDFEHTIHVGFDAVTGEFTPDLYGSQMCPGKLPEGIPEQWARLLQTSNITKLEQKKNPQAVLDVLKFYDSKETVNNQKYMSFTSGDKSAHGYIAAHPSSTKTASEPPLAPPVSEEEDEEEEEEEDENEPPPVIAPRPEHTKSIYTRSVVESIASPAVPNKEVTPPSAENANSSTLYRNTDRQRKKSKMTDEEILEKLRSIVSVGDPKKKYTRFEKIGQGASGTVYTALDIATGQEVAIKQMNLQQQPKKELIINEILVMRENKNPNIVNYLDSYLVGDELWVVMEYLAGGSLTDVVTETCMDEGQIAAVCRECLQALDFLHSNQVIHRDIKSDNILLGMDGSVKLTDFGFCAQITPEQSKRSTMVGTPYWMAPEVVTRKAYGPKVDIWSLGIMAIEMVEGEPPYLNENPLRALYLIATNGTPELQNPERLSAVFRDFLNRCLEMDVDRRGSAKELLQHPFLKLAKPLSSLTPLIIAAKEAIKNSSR
Protocol: as §1, §2, §3, §4, §5

PAK4 = biological target: T2, PAK4 (Homo sapiens, UniProt O96013); assay: Z'Lyte fluorescence-based (FRET) kinase assay, PAK4; details: ATP at Km apparent (5 μM ATP); 1 hr room temperature
T2 construct: Purified PAK kinase is incubated with ATP
T2 sequence (O96013 whole entry): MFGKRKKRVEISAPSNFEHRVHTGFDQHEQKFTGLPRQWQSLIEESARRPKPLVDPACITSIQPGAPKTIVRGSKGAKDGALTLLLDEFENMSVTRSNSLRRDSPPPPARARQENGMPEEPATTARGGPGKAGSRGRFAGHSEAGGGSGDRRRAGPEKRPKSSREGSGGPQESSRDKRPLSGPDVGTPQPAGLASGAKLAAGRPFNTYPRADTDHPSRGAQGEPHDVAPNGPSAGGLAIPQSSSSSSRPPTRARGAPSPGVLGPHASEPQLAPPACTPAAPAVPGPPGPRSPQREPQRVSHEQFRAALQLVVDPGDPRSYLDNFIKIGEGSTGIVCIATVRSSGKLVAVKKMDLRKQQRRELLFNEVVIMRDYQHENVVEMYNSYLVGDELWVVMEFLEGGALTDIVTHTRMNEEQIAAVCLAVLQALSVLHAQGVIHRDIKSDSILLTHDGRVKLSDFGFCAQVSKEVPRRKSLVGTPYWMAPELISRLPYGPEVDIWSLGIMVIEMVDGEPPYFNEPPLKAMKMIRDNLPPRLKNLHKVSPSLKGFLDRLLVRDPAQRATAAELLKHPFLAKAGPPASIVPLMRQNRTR
Protocol: as §1, §2, §3, §4, §5

Measured: IC50

PAK2, sequence (Q13177 whole entry): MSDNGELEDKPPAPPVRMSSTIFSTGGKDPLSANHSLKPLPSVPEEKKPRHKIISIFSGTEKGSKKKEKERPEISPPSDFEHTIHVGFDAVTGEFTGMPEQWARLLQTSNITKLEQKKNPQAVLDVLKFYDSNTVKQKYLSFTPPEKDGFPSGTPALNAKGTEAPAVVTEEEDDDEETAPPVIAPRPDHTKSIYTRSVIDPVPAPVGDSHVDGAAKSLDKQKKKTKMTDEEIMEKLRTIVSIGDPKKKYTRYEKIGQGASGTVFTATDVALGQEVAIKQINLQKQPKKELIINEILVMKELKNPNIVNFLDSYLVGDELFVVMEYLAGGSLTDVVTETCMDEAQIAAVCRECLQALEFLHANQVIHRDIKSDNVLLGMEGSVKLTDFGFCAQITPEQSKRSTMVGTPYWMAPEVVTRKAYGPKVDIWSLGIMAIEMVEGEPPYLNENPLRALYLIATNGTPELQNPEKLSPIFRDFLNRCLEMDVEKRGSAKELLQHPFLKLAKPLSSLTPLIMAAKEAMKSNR

CN1CCN(c2ccc(Nc3ncc4ccc(=O)n(Cc5c(O)cccc5F)c4n3)cc2)CC1 [compound 105]
< 1 µM: all assays above

CN1CCN(c2ccc(Nc3ncc4ccc(=O)n(Cc5c(O)cccc5Br)c4n3)cc2)CC1 [compound 123]
< 1 µM: all assays above
